Data as given in PubChem BioAssay AID1259408 (Genetic Toxicology Data Bank (GENE-TOX), 2018).
Active and inactive are the calls of the source. The rule behind the calls is not given here.

Tested on: GENE-TOX genotoxicity assays, various organisms and cells
Assay: GENE-TOX mutagenicity studies
Settings: for call: Assay Type: In vivo carcinogenicity studies
[1] = Species/Cell Type: Saccharomyces cerevisiae, Assay Type: Mitotic recombination or gene conversion, Assay Code: YEH-, Evaluation Type: Evaluation A (Pre-1980)
[2] = Species/Cell Type: Salmonella typhimurium (one or more of the five standard strains: TA98, TA100, TA1535, TA1537, and TA1538), Assay Type: Histidine reverse gene mutation, Ames assay, Assay Code: SALT, Evaluation Type: Evaluation A (Pre-1980)
[3] = Species/Cell Type: Chinese hamster lung (V79) cells, Assay Type: Forward gene mutation at the HPRT or ouabain locus, Assay Code: V79-, Evaluation Type: Evaluation A (Pre-1980)
[4] = Species/Cell Type: Escherichia coli polA (W3119 vs P3478), Assay Type: Rec-assay, DNA effects (bacterial DNA repair), Assay Code: RE1T, Evaluation Type: Evaluation A (Pre-1980)
[5] = Species/Cell Type: Salmonella typhimurium (one or more of the five standard strains: TA98, TA100, TA1535, TA1537, and TA1538), Assay Type: Histidine reverse gene mutation, Ames assay, Assay Code: SAL-, Evaluation Type: Evaluation A (Pre-1980)
[6] = Species/Cell Type: Bacillus subtilis (H17 vs M45), Assay Type: Rec-assay, spot test, DNA effects (bacterial DNA repair), Assay Code: REW+, Evaluation Type: Evaluation A (Pre-1980)
[7] = Species/Cell Type: Nonhuman, Assay Code: CCG+, Evaluation Type: Evaluation A (Pre-1980)
[8] = Species/Cell Type: Bacillus subtilis (H17 vs M45), Assay Type: Rec-assay, spot test, DNA effects (bacterial DNA repair), Assay Code: REWT, Evaluation Type: Evaluation A (Pre-1980)
[9] = Species/Cell Type: Drosophila melanogaster, Assay Type: Sex-linked recessive lethal gene mutation, Assay Code: SRL-, Evaluation Type: Evaluation A (Pre-1980)
[10] = Species/Cell Type: Human, Assay Type: Sister-chromatid exchange (SCE) in vitro, Assay Code: SC1+D, Dose Response: With dose response, Evaluation Type: Evaluation B (Post-1980)
[11] = Species/Cell Type: Mammalian polychromatic erythrocytes, Assay Type: Micronucleus test, chromosome aberrations, Assay Code: MNT+, Evaluation Type: Evaluation B (Post-1980)
[12] = Species/Cell Type: Nonhuman, Assay Code: CCGT, Evaluation Type: Evaluation A (Pre-1980)
[13] = Species/Cell Type: Mammalian polychromatic erythrocytes, Assay Type: Micronucleus test, chromosome aberrations, Assay Code: MNTT, Evaluation Type: Evaluation A (Pre-1980)

CC1=C(O)C(=O)C(C2=C(O)C(=O)C(C)=C(O)C2=O)=C(O)C1=O was tested, and the mutagenic call [1] was “inactive; negative” and the mutagenic call [2] was “no conclusion”.
For O=C=NCCCl, the mutagenic call [3] was “inactive; negative”.
In the case of CN(CC(=O)OC[C@H](N)C(=O)O)N=O, the mutagenic call (Species/Cell Type: Escherichia coli polA (W3110 vs P3478), Assay Type: Rec-assay, DNA effects (bacterial DNA repair), Assay Code: RE2+, Evaluation Type: Evaluation A (Pre-1980)) is reported as “active; positive” and the mutagenic call [4] is reported as “no conclusion”.
c1nnc(NCNc2nncs2)s1 was tested, and the mutagenic call (Species/Cell Type: Mammalian polychromatic erythrocytes, Assay Type: Micronucleus test, chromosome aberrations, Assay Code: MNT+U, Dose Response: Unconfirmed positive response, Evaluation Type: Evaluation B (Post-1980)) was “active; positive”.
For O=C1OC2(c3ccccc31)c1ccc(O)c(Br)c1Oc1c2ccc(O)c1Br, the mutagenic call [2] was “no conclusion”.
For Cc1ccc(Cl)cc1, the mutagenic call [1] was “inactive; negative” and the mutagenic call [5] was “inactive; negative”.
In the case of ClC(Cl)(Cl)c1ccccc1, the mutagenic call [6] is reported as “active; positive” and the call [7] is reported as “active; positive”.
O=C1C(c2[nH]c3ccccc3c2O)=Nc2ccccc21 was tested, and the mutagenic call (Species/Cell Type: Mammalian polychromatic erythrocytes, Assay Type: Micronucleus test, chromosome aberrations, Assay Code: MNT-, Evaluation Type: Evaluation B (Post-1980)) was “inactive; negative”.
For CNC(=O)/C=C(\C)OP(=O)(OC)OC, the mutagenic call [8] was “no conclusion”, the mutagenic call [9] was “inactive; negative” and the mutagenic call (Species/Cell Type: Escherichia coli WP2 UVRA, Assay Type: Tryptophan reverse gene mutation, Assay Code: WPU-*, Activation: With metabolic activation, Evaluation Type: Evaluation A (Pre-1980)) was “inactive; negative”. The mutagenic call [4] was “no conclusion”, the mutagenic call (Species/Cell Type: Human diploid fibroblasts, Assay Type: Unscheduled DNA synthesis (UDS) in vitro, DNA effects, Assay Code: UDH+, Evaluation Type: Evaluation A (Pre-1980)) was “active; positive” and the mutagenic call [10] was “active; positive”. For the same compound, the mutagenic call [11] was “active; positive”, the mutagenic call (Species/Cell Type: Saccharomyces cerevisiae, Assay Type: Mitotic recombination or gene conversion, Assay Code: YEH+, Evaluation Type: Evaluation A (Pre-1980)) was “active; positive” and the mutagenic call [2] was “no conclusion”.
With O=C(CO)c1coc(=O)c2c(O)cccc12 the mutagenic call [8] was “no conclusion”.
In the case of ClCOCCl, the call [7] is reported as “active; positive”.
For CCN(Cc1cccc(S(=O)(=O)O)c1)c1ccc(C(=C2C=CC(=[N+](CC)Cc3cccc(S(=O)(=O)O)c3)C=C2)c2ccc(O)cc2S(=O)(=O)[O-])cc1, the mutagenic call [8] was “no conclusion”, the mutagenic call (Species/Cell Type: Bacillus subtilis (H17 vs M45T), Assay Type: Rec-assay, spot test, DNA effects (bacterial DNA repair), Assay Code: REXT, Evaluation Type: Evaluation A (Pre-1980)) was “no conclusion” and the mutagenic call [11] was “active; positive”. The mutagenic call (Species/Cell Type: Saccharomyces cerevisiae, Assay Type: Mitotic recombination or gene conversion, Assay Code: YEC-, Evaluation Type: Evaluation A (Pre-1980)) was “inactive; negative” and the mutagenic call [5] was “inactive; negative”.
CN(C)c1ccc(N=Nc2ccccc2C(=O)O)cc1 was tested, and the mutagenic call [6] was “active; positive” and the mutagenic call [2] was “no conclusion”.
COC(=O)Nc1ncc(-c2ccc(Br)cc2)[nH]1 was tested, and the mutagenic call (Species/Cell Type: Salmonella typhimurium, Assay Type: Forward and reverse gene mutation, host-mediated assay, Assay Code: HMAT, Evaluation Type: Evaluation A (Pre-1980)) was “no conclusion”.
In the case of Cc1c2ccccc2cc2c3c(ccc12)[C@@H](O)[C@H](O)C=C3, the mutagenic call (Species/Cell Type: Chinese hamster lung (V79) cells, Assay Type: Forward gene mutation at the HPRT or ouabain locus, Assay Code: V79+, Evaluation Type: Evaluation A (Pre-1980)) is reported as “active; positive” and the call (Species/Cell Type: Nonhuman, Assay Code: CCG+L, Evaluation Type: Evaluation A (Pre-1980)) is reported as “active; positive”.
O[C@H]1c2ccccc2-c2cc3ccccc3cc2[C@@H]1O was tested, and the mutagenic call [3] was “inactive; negative”, the mutagenic call (Species/Cell Type: Mouse prostate cells, Assay Type: Cell transformation, Assay Code: CTM-, Evaluation Type: Evaluation A (Pre-1980)) was “inactive; negative” and the call [12] was “no conclusion”. For the same compound, the mutagenic call (Species/Cell Type: Nonhuman, Assay Type: Sister-chromatid exchange (SCE) in vitro, Assay Code: SC2+D, Dose Response: With dose response, Evaluation Type: Evaluation B (Post-1980)) was “active; positive”, the mutagenic call [2] was “no conclusion” and the mutagenic call (Species/Cell Type: Syrian hamster embryo (SHE) cells, Assay Type: Cell transformation, clonal assay, Assay Code: CTC+, Evaluation Type: Evaluation A (Pre-1980)) was “active; positive”.
Cc1c2ccccc2c(C)c2c1ccc1cc(O)ccc12 was tested, and the mutagenic call (Species/Cell Type: Chinese hamster lung (V79) cells, Assay Type: Forward gene mutation at the HPRT or ouabain locus, Assay Code: V79-*, Activation: With metabolic activation, Evaluation Type: Evaluation A (Pre-1980)) was “inactive; negative” and the call [12] was “no conclusion”.
With Cc1cc(C(C)(C)C)c(O)c(C(C)(C)C)c1 the mutagenic call (Species/Cell Type: Allium cepa, Assay Type: Chromosome aberrations, Assay Code: ALC+, Evaluation Type: Evaluation A (Pre-1980)) was “active; positive”, the mutagenic call (Species/Cell Type: Drosophila melanogaster, Assay Type: Aneuploidy, whole sex chromosome loss, chromosome aberrations, Assay Code: DAC+M, Evaluation Type: Evaluation A (Pre-1980)) was “active; positive” and the mutagenic call [9] was “inactive; negative”. For the same compound, the mutagenic call (Species/Cell Type: Drosophila melanogaster, Sex: Male, Assay Type: Heritable translocation test, chromosome aberrations, Assay Code: DHTT, Evaluation Type: Evaluation A (Pre-1980)) was “no conclusion”, the mutagenic call [13] was “no conclusion” and the mutagenic call (Species/Cell Type: Mouse, Sex: Male, Assay Type: Specific locus test, gene mutation, Assay Code: SLT-, Evaluation Type: Evaluation A (Pre-1980)) was “inactive; negative”. For the same compound, the mutagenic call (Species/Cell Type: Mouse, Sex: Male, Assay Type: Sperm morphology, Assay Code: SPIT, Evaluation Type: Evaluation A (Pre-1980)) was “no conclusion” and the mutagenic call [5] was “inactive; negative”.
With CCC1(c2ccc(O)cc2)OC1(CC)c1ccc(O)cc1 (configuration not stated) the mutagenic call [10] was “active; positive”.
With O=C(Cl)c1ccccc1 the mutagenic call [8] was “no conclusion”.
For CC(C)(C)I, the mutagenic call (Species/Cell Type: Escherichia coli polA (W3119 vs P3478), Assay Type: Rec-assay, DNA effects (bacterial DNA repair), Assay Code: RE1+, Evaluation Type: Evaluation A (Pre-1980)) was “active; positive”.
With Nc1ncnc2c1ncn2[C@@H]1O[C@H](CO[C@H]2[C@H](O)[C@@H](O)[C@@H](O[C@@H](C(=O)O)[C@H](O)[C@H](OP(=O)(O)O)[C@H](O)C(=O)O)O[C@@H]2CO)[C@@H](O)[C@H]1O the mutagenic call (Species/Cell Type: Plant, Assay Type: Micronucleus test, chromosome aberrations, Assay Code: MNP+, Evaluation Type: Evaluation A (Pre-1980)) was “active; positive”.
With CCOC(=O)NC(=S)Nc1ccccc1NC(=S)NC(=O)OCC the mutagenic call (Species/Cell Type: Aspergillus nidulans, Assay Type: Aneuploidy, chromosome aberrations, Assay Code: ASN+, Evaluation Type: Evaluation A (Pre-1980)) was “active; positive” and the mutagenic call (Species/Cell Type: Aspergillus nidulans, Assay Type: Mitotic recombination, Assay Code: ASGT, Evaluation Type: Evaluation A (Pre-1980)) was “no conclusion”.
With Cc1nc(NO)cc2[nH]c3ccccc3c12 the mutagenic call (Species/Cell Type: Human lymphocytes, Assay Type: Sister-chromatid exchange (SCE) in vitro, Assay Code: SCL+D, Dose Response: With dose response, Evaluation Type: Evaluation B (Post-1980)) was “active; positive” and the mutagenic call [10] was “active; positive”.
For CC[C@@]1(O)C[C@H](O[C@H]2C[C@H](N(C)C)[C@H](O[C@H]3C[C@H](O)[C@H](O[C@H]4CCC(=O)[C@H](C)O4)[C@H](C)O3)[C@H](C)O2)c2c(cc3c(c2O)C(=O)c2c(O)cccc2C3=O)[C@H]1C(=O)OC, the mutagenic call [2] was “no conclusion”.
With Cc1c(C)c2c(c(C)c1O)CC[C@@](C)(CCC[C@H](C)CCC[C@H](C)CCCC(C)C)O2 the mutagenic call (Species/Cell Type: Human lymphocytes, Assay Type: Sister-chromatid exchange (SCE) in vitro, Assay Code: SCLT, Evaluation Type: Evaluation B (Post-1980)) was “no conclusion” and the mutagenic call (Species/Cell Type: Human, Assay Type: Sister-chromatid exchange (SCE) in vitro, Assay Code: SC1T, Evaluation Type: Evaluation B (Post-1980)) was “no conclusion”.
For Cc1c2ccccc2c(C)c2ccccc12, the mutagenic call [13] was “no conclusion”, the mutagenic call (Species/Cell Type: Mouse, Sex: Male, Assay Type: Sperm morphology, Assay Code: SPI-, Evaluation Type: Evaluation A (Pre-1980)) was “inactive; negative” and the mutagenic call (Species/Cell Type: Nonhuman, Assay Type: Sister-chromatid exchange (SCE) in vitro, Assay Code: SC2+, Evaluation Type: Evaluation B (Post-1980)) was “active; positive”. The mutagenic call (Species/Cell Type: Salmonella typhimurium (one or more of the five standard strains: TA98, TA100, TA1535, TA1537, and TA1538), Assay Type: Histidine reverse gene mutation, Ames assay, Assay Code: SAL+*, Activation: With metabolic activation, Evaluation Type: Evaluation A (Pre-1980)) was “active; positive”.
In the case of O=NN(CCCl)C(=O)NCCCCO, the mutagenic call (Species/Cell Type: Saccharomyces cerevisiae, Assay Type: Mitotic recombination or gene conversion, Assay Code: YEC+, Evaluation Type: Evaluation A (Pre-1980)) is reported as “active; positive”.
In the case of O=c1nc(NO)ccn1[C@@H]1O[C@H](CO)[C@@H](O)[C@H]1O, the mutagenic call (Species/Cell Type: Escherichia coli WP2, Assay Type: Tryptophan reverse gene mutation, Assay Code: WP2+D, Dose Response: With dose response, Evaluation Type: Evaluation A (Pre-1980)) is reported as “active; positive” and the mutagenic call (Species/Cell Type: Escherichia coli WP2 UVRA, Assay Type: Tryptophan reverse gene mutation, Assay Code: WPU+D, Dose Response: With dose response, Evaluation Type: Evaluation A (Pre-1980)) is reported as “active; positive”.
